Source: PMC4339527 (Bioorganic & medicinal chemistry, 2015)
Read-outs that look alike come from different tables or passages of the source.

Legend:
P. aeruginosa T3SS [1] = biological target: T1, P. aeruginosa T3SS (Pseudomonas aeruginosa, UniProt P95434); type: cell-based; conditions: for IC50: read-out: translocation IC50, CHO cells + P. aeruginosa PA99U, LDH release
P. aeruginosa T3SS [2] = biological target: T1, P. aeruginosa T3SS; assay: T3SS-mediated secretion assay; type: cell-based; conditions: for potency increase in the β-lactamase secretion assay over the unoptimized compound: 37a vs 34o, 37b vs 34r
P. aeruginosa T3SS [3] = conditions: read-out: translocation IC50; activity in translocation assays; cited from earlier work

Row | Molecule | IC50 (P. aeruginosa T3SS [1]) [µM] | potency increase in the β-lactamase secretion assay over the unoptimized compound (P. aeruginosa T3SS [2]) [fold] | also measured
1 | N-[(Benzimidazol-5-ylmethyl])-2-(2,4-dichlorophenoxy)propanamide [Compound 34q] | 33 ± 8 | – | –
2 | CC[C@@H](Oc1ncc(Cl)cc1Cl)C(=O)NCc1ccc2[nH]ccc2c1 [Compound 37b, (R)-N-[(Indol-5-yl)methyl]-2-[(3,5-dichloropyridin-2-yl)oxy]butanamide] | – | 2.6 | improvement in the translocation assay over the unoptimized compound (P. aeruginosa T3SS [1]; 37b vs 34r): 2.5 fold
3 | O=C(NN=Cc1cc(Br)cc(Br)c1O)c1ccc([N+](=O)[O-])cc1 [INP-007] | – | – | IC50 (P. aeruginosa T3SS [3]): 800 nM
4 | CC[C@@H](Oc1ncc(Cl)cc1Cl)C(=O)NCc1ccc2sccc2c1 [Compound 37a, (R)-N-[(Benzothiophene-5-yl)methyl]-2-[(3,5-dichloropyridin-2-yl)oxy]butanamide] | – | 6 | –
5 | N-(Benzothiophene-5-yl)-2-(2,4-dichlorophenoxy)propanamide [Compound 34o] | 5.3 ± 3.7 | – | IC50 (P. aeruginosa T3SS [2]; read-out: secretion IC50): 6 ± 1.6 µM
